Source: patent publication US20020082391A1, “Human occludin, its uses and enhancement of drug absorption using occludin inhibitors” (priority 1996, published 2002)

B1: peptide #1 (N-terminal half of occludin extracellular loop #1) (peptide)
peptide: CDRGYGTSLLGGSVGYPYGGSGFG

Tests used:
[1] = tested on: occludin-transfected fibroblasts (NRK cell clone, N2occ cells); assay: Cell adhesion (suspended cell aggregation) assay, occludin-transfected NRK fibroblasts (N2occ); assay type: cell-based, rat; settings: for inhibition of occludin-induced adhesion: NRK cell clone, peptide at 100 μM, 80 minutes
Procedure: Peptides were added in equal volumes of PBS at the start of the incubation period; extent of aggregation is shown after 80 minutes of incubation. Loop peptides represent contiguous sequences in the first extracellular loop; the internal peptide has the same pI as loop peptide #1. Peptide sequences are given in the Examples section. One of three experiments with identical results is shown.
For immunofluorescent localization studies, cells were grown on glass coverslips. […] MDCK cells were transfected and induced with sodium butyrate as described above and stable cells lines were plated and induced as described for immunoblots. Cells were washed with PBS, fixed in 1% paraformaldehyde in PBS, extracted with 0.1% Triton-X 100 and quenched with 50 mM NH4Cl in PBS. In experiments to test the accessibility to the anti-peptide #1 antibody, incubation of the primary antibody was performed without permeabilization of cells with Triton-X 100. Cells were blocked for 1 hour in PBS plus 2% goat serum, incubated in primary antibodies (anti-VSV-G at 10 ug/ml, guinea pig anti-occludin at 1:250, and anti-ZO-1 at 1:300; affinity-purified anti-peptide #1 antibody at 1:10) for 1 hour, washed and incubated in affinity-purified secondary antibodies (1:100) for 1 hour. Cells were washed, dipped in H2O and mounted in Vectashield (Vector Laboratories). The samples were examined with a Nikon Microfot-FX epifluorescence microscope; photographs were taken with TMAX400 film (Kodak, Rochester, NY) using the automatic exposure setting. Cell Adhesion Assay Adhesion of stably transfected cell lines was measured by a modification of the procedure described by Wesseling, J., et al., Mol. Biol. Cell 7:565-577 (1996). Cell lines were plated and induced with sodium butyrate as described above. Cell layers were rinsed twice with Ca^2+-Mg^2+-free PBS and then incubated for 30 minutes in Ca^2+-Mg^2+-free PBS plus 1 mM EDTA and 0.1 mg/ml DNAse. After 30 minutes, cells were mechanically dissociated, counted and resuspended at a concentration of 2.5×10^5 cells/ml in Ca^2+-Mg^2+-free PBS, 1 mM EDTA and 0.1 mg/ml DNAse. For each condition, the adhesion assay was performed in duplicate in two 50-ml conical tubes on a rotating platform at 80 rpm at 25° C. At each time point, the number of particles in two 175 ul aliquot of each tube was determined in a Coulter Counter (Hialeah, FL). The amount of adhesion was represented by Nt/N0, where N0 was the initial number of particles in each sample (the starting number of single cells), and Nt was the number at each time point. 100% of cells were single at the beginning of all assays, as determined by phase-contrast microscopy. Some experiments were performed in the presence of the peptides described above.
The ability of transfected occludin to confer adhesion onto fibroblast cell lines was assessed using a suspended cell aggregation assay (Wesseling, J., et al., Mol. Biol. Cell 7: 565-577 (1996)). All cells were counted as single particles at the beginning of the assay and any decrease in the fraction of particles over the 80 minute assay was the result of aggregates which are excluded by the Coulter Counter. Aggregation was qualitatively confirmed by light microscopic inspection and correlated with results quantified by the Coulter Counter. Immunofluorescence confirmed that ZO-1 and occludin are clustered between adherent cells after the 80 minute assay. […]

[2] = tested on: occludin-transfected fibroblasts (Rat-1 cell clone); assay: Cell adhesion (suspended cell aggregation) assay, occludin-transfected Rat-1 fibroblasts; assay type: cell-based; settings: peptide at 100 μM
Procedure: For immunofluorescent localization studies, cells were grown on glass coverslips. […] MDCK cells were transfected and induced with sodium butyrate as described above and stable cells lines were plated and induced as described for immunoblots. Cells were washed with PBS, fixed in 1% paraformaldehyde in PBS, extracted with 0.1% Triton-X 100 and quenched with 50 mM NH4Cl in PBS. In experiments to test the accessibility to the anti-peptide #1 antibody, incubation of the primary antibody was performed without permeabilization of cells with Triton-X 100. […] Cell Adhesion Assay Adhesion of stably transfected cell lines was measured by a modification of the procedure described by Wesseling, J., et al., Mol. Biol. Cell 7:565-577 (1996). […] After 30 minutes, cells were mechanically dissociated, counted and resuspended at a concentration of 2.5×10^5 cells/ml in Ca^2+-Mg^2+-free PBS, 1 mM EDTA and 0.1 mg/ml DNAse. […] At each time point, the number of particles in two 175 ul aliquot of each tube was determined in a Coulter Counter (Hialeah, FL). […] 100% of cells were single at the beginning of all assays, as determined by phase-contrast microscopy. […]
The ability of transfected occludin to confer adhesion onto fibroblast cell lines was assessed using a suspended cell aggregation assay (Wesseling, J., et al., Mol. Biol. Cell 7: 565-577 (1996)). […]

[3] = tested on: Caco-2 cells; assay: Transepithelial electrical resistance of Caco-2 monolayers after low calcium medium; assay type: cell-based, human; settings: Caco-2, peptides at final concentration 100 μM, FIG. 2
Procedure: FIG. 2 is a graph showing inhibition of occludin-dependent intercellular adhesion using extracellular loop peptides corresponding to the N-terminal half of occludin extracellular loop #1 (peptide 1, SEQ ID NO 3) and the C-terminal half of extracellular loop #1 (peptide 2, SEQ ID NO 4) compared with an irrelevant peptide (peptide 3, SEQ ID NO 6). Caco-2 cells were plated on Falcon transwell cell culture inserts in DMEM supplemented with 10% fetal bovine serum and allowed to attach for 24 hours. Confluent monolayers were washed three times with calcium- and magnesium-free phosphate buffered saline and incubated in low calcium medium (supplemented with 5% dialyzed fetal bovine serum) for 24 hours. Transepithelial electrical ressitance was measured (time 0) and an equal volume of 2× DMEM/20% fetal bovine serum was added to all wells. To some wells, peptides were added with the fresh media. All peptides were added to a final concentration of 100 μM; transepithelial electrical resistance was measured in 3 wells of each treatment condition. Symbols represent the mean and standard deviation of each measurement.
Introduction of occludin into fibroblasts causes them to become adhesive. […] FIG. 2 provides data showing this same peptide inhibits transmonolayer electrical resistance in cultured human colonic epithelial cells. Thus, the peptides are occludin inhibitors.

[4] = target: T1, human occludin (human, UniProt Q16625 1-522); assay: cell-based or functional assay
T1 sequence: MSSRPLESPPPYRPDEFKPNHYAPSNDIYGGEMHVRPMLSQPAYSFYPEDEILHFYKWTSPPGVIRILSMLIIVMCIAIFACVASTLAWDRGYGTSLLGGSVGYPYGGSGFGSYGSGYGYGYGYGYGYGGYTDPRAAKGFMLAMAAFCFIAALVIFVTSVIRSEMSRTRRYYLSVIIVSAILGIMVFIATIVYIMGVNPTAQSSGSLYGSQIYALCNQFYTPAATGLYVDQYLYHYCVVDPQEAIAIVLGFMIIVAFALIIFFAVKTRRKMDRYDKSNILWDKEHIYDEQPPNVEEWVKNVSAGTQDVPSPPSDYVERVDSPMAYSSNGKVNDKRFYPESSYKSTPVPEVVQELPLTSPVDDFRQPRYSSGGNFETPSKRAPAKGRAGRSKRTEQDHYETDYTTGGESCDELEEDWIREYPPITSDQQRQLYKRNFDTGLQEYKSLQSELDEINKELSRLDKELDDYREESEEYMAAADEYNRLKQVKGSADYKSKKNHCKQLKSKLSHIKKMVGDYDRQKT

| Molecule | inhibiting occludin-dependent cell adhesion ([1]; same concentration range (1, 10 and 100 μM)) | inhibition of occludin-induced adhesion [1] | Ki ([1]; fibroblast adhesion assay, peptides tested at 1, 10 and 100 μM, read-out: apparent Ki (inhibition of adhesion)) [µM] | inhibition of occludin-induced adhesion [2] | inhibition of transepithelial (transmonolayer) electrical resistance [3] | reversal of adhesion ([1]; peptide at 10 μM) | apparent Ki for inhibition of occludin-induced adhesion [4] [µM] |
| --- | --- | --- | --- | --- | --- | --- | --- |
| NHYAPSNDIYGGEMVHRPML (peptide construct used in experiments) [internal occludin peptide, reference compound] | ineffective |  |  |  |  |  |  |
| CSYGSGYGYGYGYGYGYGGYTDPR [peptide #2] |  | completely inhibited adhesion | 10 to 100 | completely inhibited adhesion | inhibition |  |  |
| CDRGYGTSLLGGSVGYPYGGSGFG [peptide #1] |  | completely inhibited adhesion |  | completely inhibited adhesion | inhibition | approximately half |  |
| B1 |  |  |  |  |  |  | ~10 |
